Assay results published in PubChem BioAssay (NCI).
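Assay format: 96-well plates, 48-hour exposure. GI50 = concentration required for 50% inhibition of growth. TGI is the concentration that stops growth completely.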

Experiments:
Assay in all cases: inhibition of tumour cell growth, NCI panel, 48 h
[1] = system: OVCAR-4 ovarian
[2] = system: RXF 393 renal
[3] = system: HOP-62 NSCLC
[4] = system: HL-60(TB) leukemia
[5] = system: UACC-257 melanoma
[6] = system: HCC-2998 colon
[7] = system: NCI-H522 lung
[8] = system: SF-539 CNS
[9] = system: SK-MEL-5 melanoma
[10] = system: M14 melanoma

SMILES | TGI [1] | TGI [2] | TGI [3] | TGI [4] | TGI [5] | TGI [6] | TGI [7] | TGI [8] | TGI [9] | TGI [10] | GI50 [1] | GI50 [2] | GI50 [3] | GI50 [4] | GI50 [5] | GI50 [6] | GI50 [7] | GI50 [10] | GI50 [8] | GI50 [9]
CSc1nc2c(ncn2C2OCC(O)C(O)C2O)c(=O)n1C (stereo not drawn) | > 100 µM | > 100 µM | > 100 µM | > 100 µM | > 100 µM | > 100 µM | > 100 µM | > 100 µM | > 100 µM | – | – | – | – | – | – | – | – | – | – | –
O=C(Nc1cccc2c1[nH]c1c(-c3ccccc3)nccc12)c1ccccc1[N+](=O)[O-] | > 100 µM | 90.2 µM | – | > 100 µM | > 100 µM | > 100 µM | – | 97 µM | – | > 100 µM | – | – | – | – | – | – | – | – | – | –
CN1CCN(Cc2ccc(NC(=O)c3cccc(C#Cc4cnc(N)c5ncccc45)c3F)cc2C(F)(F)F)CC1 | 1.59 µM | 1.3 µM | 8.71 µM | 18.7 µM | 1.65 µM | 1.6 µM | 1.47 µM | 1.5 µM | 12.1 µM | 1.37 µM | 0.735 µM | 0.613 µM | 1.74 µM | 1.68 µM | 0.828 µM | 0.834 µM | 0.587 µM | 0.59 µM | 0.733 µM | 4.3 µM
O=C1C=CC(=O)c2c1ccc1c3ccccc3n(-c3ccccc3[N+](=O)[O-])c21 | 10.2 µM | 3.24 µM | > 53.7 µM | – | 13.1 µM | 13.2 µM | 2.87 µM | > 65.2 µM | 21.2 µM | 4.58 µM | – | – | – | – | – | – | – | – | – | –
COc1ccc2[nH]c3c(C)c4ccnc(NCCCN(C)CCCNc5ccc6ncn7c8ccccc8c(=O)c5c67)c4c(C)c3c2c1 | 6.94 µM | 0.623 µM | 0.784 µM | – | 2.9 µM | – | 1.24 µM | 0.379 µM | 4.61 µM | 2.48 µM | – | – | – | – | – | – | – | – | – | –
COc1cccc(NC(=O)C(=O)C(C(=O)c2ccccc2F)C2OC(=O)c3ccccc32)c1 (stereo not drawn) | > 100 µM | 63.6 µM | > 100 µM | 54.1 µM | > 100 µM | 39.2 µM | 40.7 µM | 57.3 µM | > 100 µM | > 100 µM | – | – | – | – | – | – | – | – | – | –
COc1cc2c(cc1OC)C(=O)/C(=C/c1cc(OC)c(OC)c(OC)c1)C2 | > 100 µM | > 100 µM | > 100 µM | > 100 µM | – | – | 51 µM | – | > 100 µM | > 100 µM | – | – | – | – | – | – | – | – | – | –
O=C1C(Cl)N(c2cccc([N+](=O)[O-])c2)C1c1c[nH]c2ccccc12 (stereo not drawn) | 33.7 µM | 27 µM | 33.6 µM | > 100 µM | 49 µM | – | 48.7 µM | 40.7 µM | 34.5 µM | 33 µM | – | – | – | – | – | – | – | – | – | –
COC1(O)c2cccc(Cl)c2C(=O)N1C1(C(N)=O)CCCCC1 (stereo not drawn) | > 100 µM | > 100 µM | > 100 µM | > 100 µM | > 100 µM | > 100 µM | > 100 µM | > 100 µM | > 100 µM | – | – | – | – | – | – | – | – | – | – | –
NC12CCC(CC1=O)C2 (stereo not drawn) | > 100 µM | – | > 100 µM | > 100 µM | > 100 µM | > 100 µM | – | > 100 µM | > 100 µM | > 100 µM | – | – | – | – | – | – | – | – | – | –
O=Cc1ccc(CCl)cc1 | – | 31 µM | – | 23.9 µM | 36.5 µM | – | 35.9 µM | 31.6 µM | 30.2 µM | 33.4 µM | – | – | – | – | – | – | – | – | – | –
